From patent US10407409B2, “6-(5-hydroxy-1H-pyrazol-1-yl)nicotinamide inhibitors of PHD” (Takeda Pharmaceutical Company Limited, priority 2013, dated 2019)

Experiments:
[1] = molecular target: PHD2 enzyme (residues 181-417) (Homo sapiens (Human), UniProt Q9GZT9); test: Inhibition of PHD enzyme (LC/MS peptide hydroxylation assay); type: biochemical; settings: PHD2 (residues 181-417) 5 nM, 60 min pre-incubation; -log(IC50), IC50 molar
Outline: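 PHD2 (5 nM final) preincubated with inhibitor 60 min at RT in 50 mM HEPES, 50 mM KCl, 0.5 mM TCEP, 2 uM FeCl2, 0.1 mg/ml BSA, pH 7.3. Reaction started with biotin-peptide (1 uM), 2-oxoglutarate (2 uM), ascorbate (1 mM), quenched at 60 min; hydroxylated product by LC/MS, reported as pIC50.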

[2] = tested on: HIF1a protein in H9c2 rat cardiomyocytes; test: Cell-based HIF-alpha stabilization assay (inhibition of PHD in cells); settings: Rattus norvegicus, H9c2, 24 h, 24 hrs compound incubation, HIF1a protein by ELISA, read-out: Inhibition of PHD in cells (pEC50) (converted)
Outline: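 Rat H9c2 cardiomyocytes, cultured 24 h, were treated 24 h with an 11-point serial dilution of compound. HIF1a in whole-cell lysates was quantified by ELISA as % of the maximal desferrioxamine response. EC50 came from curve fitting; EC50pos is the concentration reaching 50% of the desferrioxamine maximum.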

PHD2 enzyme (residues 181-417), sequence (Q9GZT9 181-417): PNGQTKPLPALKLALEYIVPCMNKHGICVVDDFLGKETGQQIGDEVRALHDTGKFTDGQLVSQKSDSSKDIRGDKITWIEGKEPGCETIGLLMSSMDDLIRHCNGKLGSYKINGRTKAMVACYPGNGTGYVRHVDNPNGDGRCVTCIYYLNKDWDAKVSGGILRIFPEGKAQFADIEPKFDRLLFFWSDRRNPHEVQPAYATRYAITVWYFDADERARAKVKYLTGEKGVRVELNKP

PHD Inhibition (pIC50) [1] | SMILES | EC50 [2] [nM]
7.12 | N#Cc1ccc(-c2cnn(-c3ccc(C(=O)NC4CCCC4)cn3)c2O)cc1 [Example 151, 6-(4-(4-cyanophenyl)-5-hydroxy-1H-pyrazol-1-yl)-N-cyclopentylnicotinamide] | 3630
7.6 | COCCNC(=O)c1ccc(-n2ncc(-c3ccc(C#N)cc3)c2O)nc1 [Example 152, 6-(4-(4-cyanophenyl)-5-hydroxy-1H-pyrazol-1-yl)-N-(2-methoxyethyl)nicotinamide] | 2040
7.57 | N#Cc1ccc(-c2cnn(-c3ccc(C(=O)NCC4CCCO4)cn3)c2O)cc1 (stereo not shown) [Example 153, 6-(4-(4-cyanophenyl)-5-hydroxy-1H-pyrazol-1-yl)-N-((tetrahydrofuran-2-yl)methyl)nicotinamide] | 1380
7.68 | N#Cc1ccc(-c2cnn(-c3ccc(C(=O)N[C@@H]4CCOC4)cn3)c2O)cc1 [Example 154, (R)-6-(4-(4-cyanophenyl)-5-hydroxy-1H-pyrazol-1-yl)-N-(tetrahydrofuran-3-yl)nicotinamide] | 1480
7.62 | N#Cc1ccc(-c2cnn(-c3ccc(C(=O)NC4CCCOC4)cn3)c2O)cc1 (stereo not shown) [Example 155, 6-(4-(4-cyanophenyl)-5-hydroxy-1H-pyrazol-1-yl)-N-(tetrahydro-2H-pyran-3-yl)nicotinamide] | 1550
6.9 | CC(C)CNC(=O)c1ccc(-n2ncc(-c3ccc(C#N)cc3)c2O)nc1 [Example 160, 6-(4-(4-cyanophenyl)-5-hydroxy-1H-pyrazol-1-yl)-N-isobutylnicotinamide] | 759
7.18 | N#Cc1ccc(-c2cnn(-c3ccc(C(=O)NC4CC4)cn3)c2O)cc1 [Example 161, 6-(4-(4-cyanophenyl)-5-hydroxy-1H-pyrazol-1-yl)-N-cyclopropylnicotinamide] | 447
7.23 | CCOCCCNC(=O)c1ccc(-n2ncc(-c3ccc(C#N)cc3)c2O)nc1 [Example 162, 6-(4-(4-cyanophenyl)-5-hydroxy-1H-pyrazol-1-yl)-N-(3-ethoxypropyl)nicotinamide] | 1150
7.21 | C[C@H](NC(=O)c1ccc(-n2ncc(-c3ccc(C#N)cc3)c2O)nc1)C1CCOCC1 [Example 173, (S)-6-(4-(4-cyanophenyl)-5-hydroxy-1H-pyrazol-1-yl)-N-(1-(tetrahydro-2H-pyran-4-yl)ethyl)nicotinamide] | 1100
7.31 | N#Cc1ccc(-c2cnn(-c3ccc(C(=O)NCCC4CCOCC4)cn3)c2O)cc1 [Example 174, 6-(4-(4-cyanophenyl)-5-hydroxy-1H-pyrazol-1-yl)-N-(2-(tetrahydro-2H-pyran-4-yl)ethyl)nicotinamide] | 759
7.64 | N#Cc1ccc(-c2cnn(-c3ccc(C(=O)NCCC4CCOC4)cn3)c2O)cc1 (stereo not shown) [Example 177, 6-(4-(4-cyanophenyl)-5-hydroxy-1H-pyrazol-1-yl)-N-(2-(tetrahydrofuran-3-yl)ethyl)nicotinamide] | 309
7.63 | N#Cc1ccc(-c2cnn(-c3ccc(C(=O)NCCC4CCCOC4)cn3)c2O)cc1 (stereo not shown) [Example 178, 6-(4-(4-cyanophenyl)-5-hydroxy-1H-pyrazol-1-yl)-N-(2-(tetrahydro-2H-pyran-3-yl)ethyl)nicotinamide] | 282

Continued, molecule first:

SMILES | PHD Inhibition (pIC50) [1] | EC50 [2] [nM]
COCC1(NC(=O)c2ccc(-n3ncc(-c4ccc(C#N)cc4)c3O)nc2)CCCC1 [Example 149, 6-(4-(4-cyanophenyl)-5-hydroxy-1H-pyrazol-1-yl)-N-(1-(methoxymethyl)cyclopentyl)nicotinamide] | 7.28 | 776
CNC(=O)c1ccc(-n2ncc(-c3ccc(C#N)cc3)c2O)nc1 [Example 150, 6-(4-(4-cyanophenyl)-5-hydroxy-1H-pyrazol-1-yl)-N-methylnicotinamide] | 7.58 | 2510
COCC(NC(=O)c1ccc(-n2ncc(-c3ccc(C#N)cc3)c2O)nc1)C(C)C (stereo not shown) [Example 156, 6-(4-(4-cyanophenyl)-5-hydroxy-1H-pyrazol-1-yl)-N-(1-methoxy-3-methylbutan-2-yl)nicotinamide] | 7.47 | 891
N#Cc1cnn(-c2cnn(-c3ccc(C(=O)NCc4ccccc4)cn3)c2O)c1 [Example 157, N-benzyl-6-(4-cyano-5′-hydroxy-1′H-[1,4′-bipyrazol]-1′-yl)nicotinamide] | 6.97 | 1700
N#Cc1cnn(-c2cnn(-c3ccc(C(=O)NCC4CCOCC4)cn3)c2O)c1 [Example 158, 6-(4-cyano-5′-hydroxy-1′H-[1,4′-bipyrazol]-1′-yl)-N-((tetrahydro-2H-pyran-4-yl)methyl)nicotinamide] | 6.71 | 9550
CC(C)NC(=O)c1ccc(-n2ncc(-c3ccc(C#N)cc3)c2O)nc1 [Example 159, 6-(4-(4-cyanophenyl)-5-hydroxy-1H-pyrazol-1-yl)-N-isopropylnicotinamide] | 7.15 | 912
CC(C)OCCCNC(=O)c1ccc(-n2ncc(-c3ccc(C#N)cc3)c2O)nc1 [Example 163, 6-(4-(4-cyanophenyl)-5-hydroxy-1H-pyrazol-1-yl)-N-(3-isopropoxypropyl)nicotinamide] | 7.28 | 1480
N#Cc1ccc(-c2cnn(-c3ccc(C(=O)N[C@H]4CC[C@@H](O)CC4)cn3)c2O)cc1 [Example 164, 6-(4-(4-cyanophenyl)-5-hydroxy-1H-pyrazol-1-yl)-N-((1 s,4s)-4-hydroxycyclohexyl)nicotinamide] | 7.5 | 525
N#Cc1ccc(-c2cnn(-c3ccc(C(=O)N[C@H]4CC[C@H](O)CC4)cn3)c2O)cc1 [Example 165, 6-(4-(4-cyanophenyl)-5-hydroxy-1H-pyrazol-1-yl)-N-((1r,4r)-4-hydroxycyclohexyl)nicotinamide] | 7.68 | 251
COc1cc(-c2cnn(-c3ccc(C(=O)N[C@H]4CC[C@@H](O)CC4)cn3)c2O)ccn1 [Example 166, 6-(5-hydroxy-4-(2-methoxypyridin-4-yl)-1H-pyrazol-1-yl)-N-((1s,4s)-4-hydroxycyclohexyl)nicotinamide] | 7.28 | 437
COc1cc(-c2cnn(-c3ccc(C(=O)N[C@H]4CC[C@H](O)CC4)cn3)c2O)ccn1 [Example 167, 6-(5-hydroxy-4-(2-methoxypyridin-4-yl)-1H-pyrazol-1-yl)-N-((1r,4r)-4-hydroxycyclohexyl)nicotinamide] | 7.46 | 282
COCCC1(NC(=O)c2ccc(-n3ncc(-c4ccc(C#N)cc4OC)c3O)nc2)CC1 [Example 168, 6-(4-(4-cyano-2-methoxyphenyl)-5-hydroxy-1H-pyrazol-1-yl)-N-(1-(2-methoxyethyl)cyclopropyl)nicotinamide] | 8.1 | 437
C[C@H]1C[C@@H]1NC(=O)c1ccc(-n2ncc(-c3ccc(C#N)cc3)c2O)nc1 [Example 169, 6-(4-(4-cyanophenyl)-5-hydroxy-1H-pyrazol-1-yl)-N-((1s,2s)-2-methylcyclopropyl)nicotinamide] | 7.22 | 891
C[C@@H](NC(=O)c1ccc(-n2ncc(-c3ccc(C#N)cc3)c2O)nc1)C(F)(F)F [Example 170, (R)-6-(4-(4-cyanophenyl)-5-hydroxy-1H-pyrazol-1-yl)-N-(1,1,1-trifluoropropan-2-yl)nicotinamide] | 7.29 | 2750
C[C@H](NC(=O)c1ccc(-n2ncc(-c3ccc(C#N)cc3)c2O)nc1)C(F)(F)F [Example 171, (S)-6-(4-(4-cyanophenyl)-5-hydroxy-1H-pyrazol-1-yl)-N-(1,1,1-trifluoropropan-2-yl)nicotinamide] | 7.18 | 1450
C[C@@H](NC(=O)c1ccc(-n2ncc(-c3ccc(C#N)cc3)c2O)nc1)C1CCOCC1 [Example 172, (R)-6-(4-(4-cyanophenyl)-5-hydroxy-1H-pyrazol-1-yl)-N-(1-(tetrahydro-2H-pyran-4-yl)ethyl)nicotinamide] | 7.33 | 1260
COCCC(C)(C)NC(=O)c1ccc(-n2ncc(-c3ccc(C#N)cc3)c2O)nc1 [Example 175, 6-(4-(4-cyanophenyl)-5-hydroxy-1H-pyrazol-1-yl)-N-(4-methoxy-2-methylbutan-2-yl)nicotinamide] | 7.37 | 490
COCCC(C)NC(=O)c1ccc(-n2ncc(-c3ccc(C#N)cc3)c2O)nc1 (stereo not shown) [Example 176, 6-(4-(4-cyanophenyl)-5-hydroxy-1H-pyrazol-1-yl)-N-(4-methoxybutan-2-yl)nicotinamide] | 7.53 | 398
COCCCCNC(=O)c1ccc(-n2ncc(-c3ccc(C#N)cc3C)c2O)nc1 [Example 179, 6-(4-(4-cyano-2-methylphenyl)-5-hydroxy-1H-pyrazol-1-yl)-N-(4-methoxybutyl)nicotinamide] | 8.3 | 123
Cc1cc(C#N)ccc1-c1cnn(-c2ccc(C(=O)NCC3CCC3)cn2)c1O [Example 180, 6-(4-(4-cyano-2-methylphenyl)-5-hydroxy-1H-pyrazol-1-yl)-N-(cyclobutylmethyl)nicotinamide] | 8.2 | 398
